Experimental data from patent publication US9221796B2, “Selective NR2B antagonists” (BRISTOL-MYERS SQUIBB COMPANY, priority 2014, dated 2015).

Target: NR2B-subtype NMDA receptors (Rattus norvegicus (Rat), UniProt P35439+Q00960)
Assay: Radioligand binding assay (3H Ro 25-6981 competition, forebrain membranes)
Details: 3H Ro 25-6981 (4 nM), listed as 44, E-1, read-out: NR2B Binding Ki
Experimental: Radioligand Binding Assay. […] Buchy D; Klingelschmidt A; Messer J; Bleuel Z; Kemp J A; Richards J G. […] Thawed brains were homogenized using a Dounce homogenizer and centrifuged at 48000×g for 20 min. The pellet was resuspended in cold buffer and homogenized again using a Dounce homogenizer. […] After incubation for 1 hr at room temperature, the membrane bound radioligand was harvested on to GF/B filter plates (treated with 0.5% PEI for 1 hr at room temperature). The filter plates were dried at 50° C. for 20 mins, incubated with microscint 20 for 10 minutes and finally, the counts were read on TopCount (Perkin Elmer). […] CPM values were converted to % inhibition and the concentration response curves were plotted using custom made software. Each experiment was repeated at least twice to obtain the final binding Ki values for experimental compounds.

NR2B-subtype NMDA receptors, sequence (Q00960 27-1482, other chains not shown): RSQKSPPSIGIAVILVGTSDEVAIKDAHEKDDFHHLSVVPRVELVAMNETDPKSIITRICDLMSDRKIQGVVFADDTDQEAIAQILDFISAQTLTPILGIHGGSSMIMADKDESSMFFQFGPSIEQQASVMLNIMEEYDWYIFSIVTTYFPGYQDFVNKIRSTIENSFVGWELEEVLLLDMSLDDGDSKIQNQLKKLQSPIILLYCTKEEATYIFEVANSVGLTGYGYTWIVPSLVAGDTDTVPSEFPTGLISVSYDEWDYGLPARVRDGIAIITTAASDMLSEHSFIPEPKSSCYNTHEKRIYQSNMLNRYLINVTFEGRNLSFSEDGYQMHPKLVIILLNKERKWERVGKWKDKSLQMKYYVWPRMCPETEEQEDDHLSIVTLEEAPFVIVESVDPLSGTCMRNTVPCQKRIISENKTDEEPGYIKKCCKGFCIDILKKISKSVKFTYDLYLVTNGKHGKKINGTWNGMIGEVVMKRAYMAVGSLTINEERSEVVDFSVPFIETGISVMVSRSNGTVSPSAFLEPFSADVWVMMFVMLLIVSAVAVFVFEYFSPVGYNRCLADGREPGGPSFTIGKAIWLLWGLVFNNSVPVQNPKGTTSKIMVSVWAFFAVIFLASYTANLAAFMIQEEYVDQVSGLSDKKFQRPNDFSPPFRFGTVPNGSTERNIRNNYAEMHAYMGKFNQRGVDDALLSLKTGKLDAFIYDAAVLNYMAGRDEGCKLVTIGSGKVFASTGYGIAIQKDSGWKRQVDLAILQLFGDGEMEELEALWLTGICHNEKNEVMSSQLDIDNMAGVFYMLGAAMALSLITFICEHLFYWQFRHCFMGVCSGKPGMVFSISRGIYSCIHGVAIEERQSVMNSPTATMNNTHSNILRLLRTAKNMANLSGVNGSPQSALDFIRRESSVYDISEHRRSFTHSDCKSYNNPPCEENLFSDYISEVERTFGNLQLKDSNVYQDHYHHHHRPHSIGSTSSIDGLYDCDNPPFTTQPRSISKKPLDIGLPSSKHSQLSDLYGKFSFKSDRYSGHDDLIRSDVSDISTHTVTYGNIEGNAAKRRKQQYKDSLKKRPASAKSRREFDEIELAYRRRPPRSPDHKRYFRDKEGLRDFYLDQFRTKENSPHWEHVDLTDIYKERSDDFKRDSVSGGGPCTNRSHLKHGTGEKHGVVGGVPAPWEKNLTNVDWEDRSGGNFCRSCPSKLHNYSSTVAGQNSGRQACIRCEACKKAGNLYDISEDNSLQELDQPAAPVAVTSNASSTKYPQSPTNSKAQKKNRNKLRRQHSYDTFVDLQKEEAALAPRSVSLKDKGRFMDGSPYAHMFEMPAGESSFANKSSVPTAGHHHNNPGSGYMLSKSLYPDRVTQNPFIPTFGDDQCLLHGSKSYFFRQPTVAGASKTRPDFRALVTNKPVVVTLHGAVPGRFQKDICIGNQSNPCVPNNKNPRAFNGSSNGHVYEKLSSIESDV

Row | Ki [nM] | Compound
1 | 650 | O=C1C(N2CCC(c3ccc(O)cc3)C(O)C2)CCN1Cc1ccc(F)cc1 (single isomer, unassigned) [Example 44, E-1, 1-(4-Fluorobenzyl)-3-(cis-3-hydroxy-4-(4-hydroxyphenyl)piperidin-1-yl)pyrrolidin-2-one]

Same assay, conditions: 3H Ro 25-6981 (4 nM), listed as 44, E-2, read-out: NR2B Binding Ki

Row | Ki [nM] | Compound
2 | 5.7 | O=C1C(N2CCC(c3ccc(O)cc3)C(O)C2)CCN1Cc1ccc(F)cc1 (single isomer, unassigned) [Example 44, E-2, 1-(4-Fluorobenzyl)-3-(cis-3-hydroxy-4-(4-hydroxyphenyl)piperidin-1-yl)pyrrolidin-2-one]

Same assay, conditions: 3H Ro 25-6981 (4 nM), read-out: NR2B Binding Ki

Row | Compound | Ki [nM]
3 | O=C1C(N2CC[C@H](c3ccc(O)cc3)[C@@H](F)C2)CCN1Cc1ccc(Cl)c(Cl)c1 (stereo partly drawn) [Example 86, 1-(3,4-Dichlorobenzyl)-3-((3R,4R)-3-fluoro-4-(4-hydroxyphenyl)-piperidin-1-yl)pyrrolidin-2-one] | 78
4 | O=C1C(N2CCC(c3ccc(O)cc3)C(F)(F)C2)CCN1c1ccc(OC(F)F)c(Cl)c1 (stereo not drawn) [Example 90, 1-(3-Chloro-4-(difluoromethoxy)phenyl)-3-(3,3-difluoro-4-(4-hydroxyphenyl)piperidin-1-yl)pyrrolidin-2-one] | 77
5 | O=C1[C@H](N2CC[C@@H](c3ccc(O)cc3)[C@H](F)C2)CCN1Cc1ccc(C(F)(F)F)cc1 [Example 72, (R)-3-((3S,4S)-3-Fluoro-4-(4-hydroxyphenyl)piperidin-1-yl)-1-(4-(trifluoromethyl)benzyl)-pyrrolidin-2-one] | 6
6 | O=C1C(N2CCC(c3ccc(O)cc3)C(O)C2)CCN1Cc1ccc(F)cc1 (single isomer, unassigned) [Example 9c, 1-(4-Fluorobenzyl)-3-(3-hydroxy-4-(4-hydroxyphenyl)-piperidin-1-yl)pyrrolidin-2-one] | 5000
7 | O=C1[C@@H](N2CC[C@@H](c3ccc(O)cc3)[C@H](F)C2)CCN1Cc1ccc(Cl)c(F)c1 [Example 66, (S)-1-(4-Chloro-3-fluorobenzyl)-3-((3S,4S)-3-fluoro-4-(4-hydroxyphenyl)piperidin-1-yl)pyrrolidin-2-one] | 1500
8 | O=C1C(N2CCC(c3ccc(O)cc3)C(O)C2)CCN1Cc1ccc(F)cc1 (single isomer, unassigned) [Example 9d, 1-(4-Fluorobenzyl)-3-(3-hydroxy-4-(4-hydroxyphenyl)piperidin-1-yl)pyrrolidin-2-one] | 160
9 | O=C1[C@@H](N2CCC(c3ccc(O)cc3)C(F)(F)C2)CCN1Cc1ccc(F)c(F)c1 (single isomer, unassigned) [Example 108, P-1] | 1200
10 | C[C@@H](c1ccccc1)N1CC[C@H](N2CCC(c3ccc(O)cc3)CC2)C1=O [Example 33a, (S)-3-(4-(4-Hydroxyphenyl)piperidin-1-yl)-1-((S)-1-phenylethyl)pyrrolidin-2-one] | ≥ 5000
11 | O=C1C(N2CCC(c3ccc(O)cc3)C(F)(F)C2)CCN1Cc1ccc(F)c(Cl)c1 (stereo not drawn) [Example 100, 1-(3-Chloro-4-fluorobenzyl)-3-(3,3-difluoro-4-(4-hydroxyphenyl)piperidin-1-yl)pyrrolidin-2-one] | 570
12 | O=C1C(N2CCC(c3ccc(O)cc3)CC2)CCN1C1CCc2ccccc21 (stereo not drawn) [Example 34, 1-(2,3-Dihydro-1H-inden-1-yl)-3-(4-(4-hydroxyphenyl)piperidin-1-yl)pyrrolidin-2-one] | 670
13 | Cc1ccc(CN2CC[C@H](N3CC[C@H](c4ccc(O)c(F)c4)[C@@H](F)C3)C2=O)cc1F [Example 45, P-3, (S)-3-((3R,4R)-3-Fluoro-4-(3-fluoro-4-hydroxyphenyl)piperidin-1-yl)-1-(3-fluoro-4-methylbenzyl)pyrrolidin-2-one] | 380
14 | Cc1ccc(CN2CC[C@H](N3CC[C@@H](c4ccc(O)c(F)c4)[C@H](F)C3)C2=O)cc1F [Example 45, P-1, (S)-3-((3S,4S)-3-fluoro-4-(3-fluoro-4-hydroxyphenyl)piperidin-1-yl)-1-(3-fluoro-4-methylbenzyl)pyrrolidin-2-one] | 260
15 | O=C1[C@@H](N2CC[C@H](c3ccc(O)cc3)[C@@H](F)C2)CCN1Cc1ccccc1 [Example 74, (S)-1-Benzyl-3-((3R,4R)-3-fluoro-4-(4-hydroxyphenyl)piperidin-1-yl)pyrrolidin-2-one] | 680
16 | O=C1C(N2CC(c3ccc(O)cc3)C2)CCN1Cc1ccc(F)c(F)c1 (stereo not drawn) [Example 10, 1-(3,4-Difluorobenzyl)-3-(3-(4-hydroxyphenyl)azetidin-1-yl)pyrrolidin-2-one] | 1020
17 | O=C1C(N2CCC(c3ccc(O)cc3)C(F)(F)C2)CCN1Cc1ccc(OC(F)F)cc1 (stereo not drawn) [Example 94, 3-(3,3-Difluoro-4-(4-hydroxyphenyl)piperidin-1-yl)-1-(4-(difluoromethoxy)benzyl)-pyrrolidin-2-one] | 390
18 | Cc1ccc(CN2CCC(N3CCCC(c4ccc(O)cc4)CC3)C2=O)cc1 (stereo not drawn) [Example 36, 3-(4-(4-Hydroxyphenyl)azepan-1-yl)-1-(4-methylbenzyl)-pyrrolidin-2-one] | 34
19 | O=C1[C@@H](N2CCC(c3ccc(O)cc3)C(F)(F)C2)CCN1Cc1ccc(Cl)cc1 (stereo partly drawn) [Example 95, P-1, (3S)-1-(4-Chlorobenzyl)-3-(3,3-difluoro-4-(4-hydroxyphenyl)piperidin-1-yl)pyrrolidin-2-one] | 54
20 | Cc1ccc(CN2CC[C@@H](N3CC[C@@H](c4ccc(O)c(F)c4)[C@H](F)C3)C2=O)cc1 [Example 115, (R)-3-((3S,4S)-3-fluoro-4-(3-fluoro-4-hydroxyphenyl)piperidin-1-yl)-1-(4-methylbenzyl)pyrrolidin-2-one] | 2.7

Continued, values first:

Row | Ki [nM] | Compound
21 | 5.8 | O=C1C(N2CCC(c3ccc(O)cc3)C(F)(F)C2)CCN1Cc1ccc(C(F)(F)F)cc1 (single isomer, unassigned) [Example 53, P-2, 3-(3,3-Difluoro-4-(4-hydroxyphenyl)piperidin-1-yl)-1-(4-(trifluoromethyl)-benzyl)pyrrolidin-2-one]
22 | 850 | O=C1[C@@H](N2CCC(c3ccc(O)cc3)CC2)CCN1Cc1ccc(F)c(F)c1 [Example 6a, (S)-1-(3,4-Difluorobenzyl)-3-(4-(4-hydroxyphenyl)piperidin-1-yl)pyrrolidin-2-one]
23 | 43 | Cc1ccc(CN2CCC(N3CC(c4ccc(O)cc4)C3)C2=O)cc1F (stereo not drawn) [Example 20, 1-(3-Fluoro-4-methylbenzyl)-3-(3-(4-hydroxyphenyl)azetidin-1-yl)pyrrolidin-2-one]
24 | 4.6 | O=C1[C@H](N2CCC(c3ccc(O)cc3)C(F)(F)C2)CCN1Cc1ccc(Cl)cc1 (stereo partly drawn) [Example 106, P-2, (3R)-1-(4-Chlorobenzyl)-3-(3,3-difluoro-4-(4-hydroxyphenyl)piperidin-1-yl)pyrrolidin-2-one]
25 | 18 | O=C1[C@H](N2CCC(c3ccc(O)cc3)C(F)(F)C2)CCN1Cc1ccc(Cl)c(F)c1 (stereo partly drawn) [Example 96, P-2, (3R)-1-(4-Chloro-3-fluorobenzyl)-3-(3,3-difluoro-4-(4-hydroxyphenyl)piperidin-1-yl)pyrrolidin-2-one]
26 | 1200 | O=C1[C@@H](N2CCC(c3ccc(O)cc3)C(F)(F)C2)CCN1Cc1ccc(Cl)c(F)c1 (single isomer, unassigned) [Example 107, P-1]
27 | 31 | Cc1ccc(CN2CCC(N3CCC(c4ccc(O)cc4)CC3)C2=O)cc1C (stereo not drawn) [Example 26, 1-(3,4-Dimethylbenzyl)-3-(4-(4-hydroxyphenyl)piperidin-1-yl)pyrrolidin-2-one]
28 | 34 | O=C1C(N2CC[C@@H](c3ccc(O)cc3)[C@H](F)C2)CCN1Cc1ccc(F)c(F)c1 (stereo partly drawn) [Example 69, 1-(3,4-Difluorobenzyl)-3-((3S,4S)-3-fluoro-4-(4-hydroxyphenyl)piperidin-1-yl)pyrrolidin-2-one]
29 | 4.4 | O=C1C(N2CCC(c3ccc(O)cc3)CC2)CCN1Cc1ccc(F)c(F)c1 (racemic) [Example 5, 1-(3,4-Difluorobenzyl)-3-(4-(4-hydroxyphenyl)piperidin-1-yl)pyrrolidin-2-one]
30 | 10 | O=C1[C@H](N2CC[C@@H](c3ccc(O)cc3)[C@H](F)C2)CCN1c1ccc(OC(F)F)c(Cl)c1 [Example 63, (R)-1-(3-Chloro-4-(difluoromethoxy)phenyl)-3-((3S,4S)-3-fluoro-4-(4-hydroxyphenyl)-piperidin-1-yl)pyrrolidin-2-one]
31 | 3.1 | Cc1ccc(CN2CC[C@@H](N3CC[C@@H](c4ccc(O)c(F)c4)[C@H](F)C3)C2=O)cc1F [Example 45, P-2, (R)-3-((3S,4S)-3-fluoro-4-(3-fluoro-4-hydroxyphenyl)piperidin-1-yl)-1-(3-fluoro-4-methylbenzyl)pyrrolidin-2-one]
32 | 380 | O=C1[C@@H](N2CCC(c3ccc(O)cc3)C(F)(F)C2)CCN1Cc1ccc(C(F)(F)F)cc1 (single isomer, unassigned) [Example 99, P-1]
33 | 150 | O=C1[C@H](N2CCC(c3ccc(O)cc3)CC2)CCN1Cc1ccc(O)c(O)c1 [Example 43, (R)-1-(3,4-Dihydroxybenzyl)-3-(4-(4-hydroxyphenyl)piperidin-1-yl)pyrrolidin-2-one]
34 | 4.7 | O=C1C(N2CCC(c3ccc(O)cc3)CC2)CCN1Cc1ccc(O)cc1 (stereo not drawn) [Example 24, 1-(4-Hydroxybenzyl)-3-(4-(4-hydroxyphenyl)piperidin-1-yl)pyrrolidin-2-one]
35 | 79 | O=C1[C@@H](N2CC[C@@H](c3ccc(O)c(F)c3)[C@H](F)C2)CCN1Cc1ccc(C(F)F)cc1 [Example 117, P-1, (S)-1-(4-(difluoromethyl)benzyl)-3-((3S,4S)-3-fluoro-4-(3-fluoro-4-hydroxyphenyl)piperidin-1-yl)pyrrolidin-2-one]
36 | 660 | C[C@@H](c1ccc(F)cc1)N1CCC(N2CCC(c3ccc(O)cc3)C(F)(F)C2)C1=O (single isomer, unassigned) [Example 56, P-4]
